# Measurements: patent US4436752A, “Treatment of gastric and gastro-duodenal disorders with derivatives of phenyl aliphatic carboxylic acids” (Roussel Uclaf, priority 1981, dated 1984)
# Tests used:
# [1] = test system: ulcers in rats at the level of the stomach; assay: Determination of the anti-ulcer activity (SHAY's technique, ulcers induced by ligature of the pylorus); assay type: in vivo; details: rat, per os, about 16 hours after treatment
# Excerpt: (1) Determination of the anti-ulcer activity
# The technique used is described by SHAY et al. in Gastroenterology, 5, 43 (1945).
# SHAY's technique consists of inducing ulcers in rats at the level of the stomach by ligature of the pylorus.
# The animals are anesthetized with ether. A longitudinal incision is made about 1 cm below the sternum, the glandular portion of the stomach and the duodenum are uncovered and a ligature is placed a few millimeters below the pylorus. The muscular plane is left as is and the skin is sutured by two clips.
# The animals then immediately receive the dispersive or the substance to be studied per os in a volume of 0.5 ml/100 g, and are kept without food or drink until sacrificed by carotid section, effected about 16 hours after the treatment.
# Before removing the stomach, a ligature is placed above the cardia.
# The gastric fluid is collected in order to measure its pH.
# The stomach is then opened along the greater curvature, rinsed in physiological serum and spread on graph paper in order to be examined under a binocular lens.
# The severity of the lesions, graded from 0 to 4 for each stomach, is then evaluated macroscopically.
# The average intensity of the ulcerations is determined for each lot of rats and the protection is calculated as the ratio of the mean index for the treated group to the mean index for the control group.
# The pH of the gastric fluid is also determined for the treated animals and the control animals.
# [2] = Determination of acute toxicity (LD50, oral route); details: mouse, in vivo, mice
# Method: (2) Determination of acute toxicity
# The lethal dose LD50 of the derivatives of Examples 1 and 2 was evaluated after administration by oral route to mice.
SMILES,"Ulceration % protection, with respect to the controls ([1]; 100 mg/kg)","pH of the gastric fluid, treated animals ([1]; 100 mg/kg, control animals 2.7)",LD50 [2],"Ulceration % protection, with respect to the controls ([1]; 0.8 mg/kg)","pH of the gastric fluid, treated animals ([1]; 0.8 mg/kg, control animals 3.5)","Ulceration % protection, with respect to the controls ([1]; 4 mg/kg)","pH of the gastric fluid, treated animals ([1]; 4 mg/kg, control animals 3.2)","Ulceration % protection, with respect to the controls ([1]; 20 mg/kg)","pH of the gastric fluid, treated animals ([1]; 20 mg/kg, control animals 3.2)"
"COc1ccc(C(=O)CC(O)C(=O)O)c(OC)c1OC (stereo not shown) [Example 1, 4-(2,3,4-trimethoxyphenyl)-4-oxo-2-hydroxy butanoic acid]",41%,3.3,> 1000 mg/kg,–,–,–,–,–,–
"COc1ccc(C(=O)/C=C/C(=O)O)c(OC)c1OC [Example 2, (E) 4-(2,3,4-trimethoxyphenyl)-4-oxo-2-butenoic acid]",–,–,~300 mg/kg,17%,3.1,76%,3.7,99%,5.8
